In PubChem BioAssay (NCI):
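Five concentrations, 48 hours, 96-well plates. TGI marks complete inhibition of growth.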

Tests used:
Assay in all cases: growth of human tumour cells (NCI), 48 h
[1] = test system: 786-0 renal
[2] = test system: U251 CNS
[3] = test system: ACHN renal
[4] = test system: UACC-62 melanoma
[5] = test system: UO-31 renal
[6] = test system: NCI-H460 lung
[7] = test system: A549 NSCLC
[8] = test system: NCI-H226 lung
[9] = test system: SR leukemia
[10] = test system: COLO 205 colon
[11] = test system: DMS 114 small cell lung
[12] = test system: SF-539 CNS
[13] = test system: HCC-2998 colon
[14] = test system: HCT-15 colon
[15] = test system: TK-10 renal
[16] = test system: K-562 leukemia
[17] = test system: HL-60(TB) leukemia
[18] = test system: A498 renal
[19] = test system: KM20L2 colon
[20] = test system: IGROV1 ovarian
[21] = test system: OVCAR-3 ovarian
[22] = test system: CCRF-CEM leukemia
[23] = test system: RPMI-8226 leukemia
[24] = test system: RXF 393 renal
[25] = test system: SF-295 CNS
[26] = test system: RXF-631 renal
[27] = test system: SNB-75 CNS
[28] = test system: LOX IMVI melanoma
[29] = test system: LXFL 529 NSCLC
[30] = test system: HOP-92 NSCLC
[31] = test system: HOP-62 NSCLC
[32] = test system: OVCAR-4 ovarian
[33] = test system: OVCAR-8 ovarian
[34] = test system: MOLT-4 leukemia
[35] = test system: DLD-1 colon
[36] = test system: M19-MEL melanoma
[37] = test system: SK-MEL-28 melanoma
[38] = test system: HOP-18 NSCLC
[39] = test system: SK-MEL-5 melanoma
[40] = test system: NCI-H23 lung
[41] = test system: UACC-257 melanoma
[42] = test system: SF-268 CNS
[43] = test system: KM12 colon
[44] = test system: MALME-3M melanoma
[45] = test system: EKVX NSCLC
[46] = test system: SNB-19 CNS
[47] = test system: HT29 colon
[48] = test system: HCT-116 colon
[49] = test system: OVCAR-5 ovarian
[50] = test system: SN12C renal
[51] = test system: NCI-H522 lung
[52] = test system: SNB-78 CNS
[53] = test system: CAKI-1 renal
[54] = test system: M14 melanoma
[55] = test system: SW-620 colon
[56] = test system: SK-OV-3 ovarian
[57] = test system: MCF7 breast
[58] = test system: MDA-MB-435
[59] = test system: XF 498 CNS
[60] = test system: MDA-N
[61] = test system: DU-145 prostate
[62] = test system: PC-3 prostate
[63] = test system: NCI/ADR-RES ovarian
[64] = test system: MDA-MB-231 breast
[65] = test system: DMS 273 small cell lung
[66] = test system: BT-549 breast
[67] = test system: T-47D breast
[68] = test system: SK-MEL-2 melanoma
[69] = test system: HS 578T breast

For `CC(=O)C1Cn2c(nc3ccccc32)C[Se]1` (centres undefined), the TGI [1] was 9.21 µM, the TGI [2] was 3.76 µM and the TGI [3] was 11.4 µM. For the same compound, the TGI [4] was 3.64 µM, the TGI [5] was 8.46 µM and the TGI [6] was 16.8 µM. It also gave a TGI [7] of 36.2 µM, a TGI [8] of 12.5 µM and a TGI [9] of 6.96 µM. The TGI [10] was 30.1 µM, the TGI [11] was 4.54 µM and the TGI [12] was 4.89 µM. It also gave a TGI [13] of 22.9 µM, a TGI [14] of 20.5 µM and a TGI [15] of 13 µM. The TGI [16] was 31.7 µM, the TGI [17] was 5.71 µM and the TGI [18] was 32.7 µM. The TGI [19] was 25.8 µM, the TGI [20] was 6.02 µM and the TGI [21] was 4.5 µM. It also gave a TGI [22] greater than 100 µM, a TGI [23] of 62.9 µM and a TGI [24] of 5.2 µM. For the same compound, the TGI [25] was 10.1 µM, the TGI [26] was 7.76 µM and the TGI [27] was 8.02 µM. For the same compound, the TGI [28] was 12 µM, the TGI [29] was 10.4 µM and the TGI [30] was 4.72 µM. For the same compound, the TGI [31] was 5.39 µM, the TGI [32] was 11.8 µM and the TGI [33] was 13.3 µM. For the same compound, the TGI [34] was 6.79 µM, the TGI [35] was 13 µM and the TGI [36] was 4.07 µM. The TGI [37] was 8.75 µM, the TGI [38] was 5.44 µM and the TGI [39] was 3.61 µM. For the same compound, the TGI [40] was 7.29 µM, the TGI [41] was 5.38 µM and the TGI [42] was 11.5 µM. The TGI [43] was 10.7 µM, the TGI [44] was 5.83 µM and the TGI [45] was 28.7 µM. For the same compound, the TGI [46] was 16 µM, the TGI [47] was 23.2 µM and the TGI [48] was 7.7 µM. The TGI [49] was 10.4 µM, the TGI [50] was 13.8 µM and the TGI [51] was 10.3 µM. It also gave a TGI [52] of 17.2 µM, a TGI [53] of 5.54 µM and a TGI [54] of 4.96 µM. The TGI [55] was 17.3 µM and the TGI [56] was 34 µM.

`COc1cc2cc3c4cc(OC)c(OC)cc4cc[n+]3c(C)c2cc1OC` (tested in a mixture with another compound) gave a TGI [1] greater than 100 µM, a TGI [2] greater than 100 µM and a TGI [3] greater than 100 µM. For the same compound, the TGI [4] was greater than 100 µM, the TGI [5] was greater than 100 µM and the TGI [6] was greater than 100 µM. For the same compound, the TGI [7] was greater than 100 µM, the TGI [8] was greater than 45.6 µM and the TGI [9] was greater than 100 µM. The TGI [10] was greater than 87.9 µM, the TGI [11] was greater than 100 µM and the TGI [12] was greater than 100 µM. For the same compound, the TGI [13] was greater than 100 µM, the TGI [14] was greater than 100 µM and the TGI [57] was greater than 100 µM. The TGI [15] was greater than 100 µM, the TGI [16] was greater than 100 µM and the TGI [17] was greater than 100 µM. For the same compound, the TGI [18] was greater than 100 µM, the TGI [19] was greater than 100 µM and the TGI [20] was greater than 100 µM. The TGI [21] was greater than 100 µM, the TGI [58] was greater than 100 µM and the TGI [59] was greater than 100 µM. For the same compound, the TGI [22] was greater than 100 µM, the TGI [23] was greater than 100 µM and the TGI [24] was greater than 100 µM. The TGI [60] was greater than 100 µM, the TGI [25] was greater than 100 µM and the TGI [27] was greater than 88.3 µM. For the same compound, the TGI [61] was greater than 100 µM, the TGI [28] was greater than 100 µM and the TGI [29] was greater than 100 µM. The TGI [30] was greater than 100 µM, the TGI [31] was greater than 100 µM and the TGI [32] was greater than 100 µM. It also gave a TGI [33] greater than 100 µM, a TGI [62] greater than 100 µM and a TGI [34] greater than 100 µM. It also gave a TGI [35] greater than 100 µM, a TGI [36] greater than 100 µM and a TGI [37] greater than 100 µM. It also gave a TGI [38] greater than 100 µM, a TGI [39] greater than 100 µM and a TGI [40] greater than 100 µM. For the same compound, the TGI [63] was greater than 100 µM, the TGI [41] was greater than 55.5 µM and the TGI [42] was greater than 95 µM. It also gave a TGI [43] greater than 100 µM, a TGI [44] greater than 100 µM and a TGI [64] greater than 100 µM. The TGI [45] was greater than 100 µM, the TGI [46] was greater than 100 µM and the TGI [47] was greater than 69.1 µM. The TGI [48] was greater than 100 µM, the TGI [65] was greater than 100 µM and the TGI [49] was greater than 100 µM. It also gave a TGI [50] greater than 100 µM, a TGI [51] greater than 100 µM and a TGI [66] greater than 100 µM. The TGI [52] was greater than 92.9 µM, the TGI [67] was greater than 100 µM and the TGI [53] was greater than 100 µM. For the same compound, the TGI [54] was greater than 100 µM, the TGI [55] was greater than 100 µM and the TGI [56] was greater than 100 µM. It also gave a TGI [68] greater than 100 µM and a TGI [69] greater than 100 µM.
